Where two headings read alike, the source gives them in different places.
Target: human TRPA1 channel (Homo sapiens (Human), UniProt O75762)
Assay: hTRPA1 CHO Ca2+ FLIPR Tetra assay: block of cinnamaldehyde induced calcium influx
Assay type: cell-based
Conditions: CHO cells expressing TRPA1, Hill coefficient fixed to 1.5
Protocol: CHO cells expressing TRPA1 were plated into 384-well plates, incubated overnight at 37° C., and loaded with BD calcium indicator dye for 1 hr at 37° C. followed by 15 minutes at room temperature. The assay buffer was Hank's Balanced Salt Solution (HBSS) containing 20 mM HEPES (pH readjusted to 7.4) along with 0.02% BSA.
Following dye load and plate cool down, compounds were added to the cells using FLIPR Tetra. Plates were then incubated with compounds for 10 minutes or 90 minutes at room temperature prior to adding agonist. Following this incubation, about an EC80 concentration of cinnamaldehyde […] was added to active the channels and block of cinnamaldehyde induced calcium influx was measured.
Fixing the Hill coefficient will generally reduce variability of the IC50 determination. The IC50 results were individually examined to make sure the MIN and MAX points were set correctly prior to validation of the results.

[1] = read-out: hTRPA1 IC50 10 min, 10 minutes incubation with compound before cinnamaldehyde (about EC80)
[2] = read-out: hTRPA1 IC50 90 min, 90 minutes incubation with compound before cinnamaldehyde (about EC80)
[3] = hTRPA1 IC50 90 min, 90 minutes incubation with compound before cinnamaldehyde (about EC80)
[4] = hTRPA1 IC50 10 min, 10 minutes incubation with compound before cinnamaldehyde (about EC80)

human TRPA1 channel, sequence (O75762 whole entry): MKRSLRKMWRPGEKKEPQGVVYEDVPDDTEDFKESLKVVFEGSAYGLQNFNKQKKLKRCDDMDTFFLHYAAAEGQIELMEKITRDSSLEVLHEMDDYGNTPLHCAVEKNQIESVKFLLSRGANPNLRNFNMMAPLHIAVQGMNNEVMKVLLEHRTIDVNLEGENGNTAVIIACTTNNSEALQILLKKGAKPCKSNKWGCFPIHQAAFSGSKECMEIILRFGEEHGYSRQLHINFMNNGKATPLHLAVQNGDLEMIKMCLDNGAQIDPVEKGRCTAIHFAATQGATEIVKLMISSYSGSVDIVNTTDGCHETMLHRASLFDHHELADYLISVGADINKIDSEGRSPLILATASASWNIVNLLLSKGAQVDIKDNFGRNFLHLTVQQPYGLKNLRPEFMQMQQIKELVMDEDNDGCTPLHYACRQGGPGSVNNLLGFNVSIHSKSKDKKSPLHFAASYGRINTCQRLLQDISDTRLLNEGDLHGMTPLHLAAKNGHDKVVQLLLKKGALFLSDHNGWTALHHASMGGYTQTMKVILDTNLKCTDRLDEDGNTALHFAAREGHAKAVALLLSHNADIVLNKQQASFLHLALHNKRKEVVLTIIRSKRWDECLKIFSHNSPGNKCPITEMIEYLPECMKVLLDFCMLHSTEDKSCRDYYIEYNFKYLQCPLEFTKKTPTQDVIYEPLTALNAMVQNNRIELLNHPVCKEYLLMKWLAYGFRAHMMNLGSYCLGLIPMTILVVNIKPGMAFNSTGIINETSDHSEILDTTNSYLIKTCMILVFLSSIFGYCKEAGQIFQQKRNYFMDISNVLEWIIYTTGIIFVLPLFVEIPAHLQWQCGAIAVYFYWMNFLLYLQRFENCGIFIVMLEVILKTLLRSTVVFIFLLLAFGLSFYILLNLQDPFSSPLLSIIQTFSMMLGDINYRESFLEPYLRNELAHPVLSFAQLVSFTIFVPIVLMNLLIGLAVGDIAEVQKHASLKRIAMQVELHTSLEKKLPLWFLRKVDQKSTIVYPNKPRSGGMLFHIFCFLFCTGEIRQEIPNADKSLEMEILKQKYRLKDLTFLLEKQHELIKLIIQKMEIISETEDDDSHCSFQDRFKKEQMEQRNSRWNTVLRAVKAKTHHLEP

SMILES | IC50 [1] [nM] | IC50 [2] [nM] | IC50 [3] [nM] | IC50 [4] [nM]
N#Cc1cnn2ncn(Cc3nc([C@@H]4CO[C@@H](c5ccc(Cl)cc5)C4)no3)c(=O)c12 [Example 115, 3-((3-((3R,5R)-5-(4-chlorophenyl)tetrahydro-furan-3-yl)-1,2,4-oxadiazol-5-yl)methyl)-4-oxo-3,4-dihydro-pyrazolo[5,1-f][1,2,4] triazine-5-carbonitrile] | 94.9 | 40 |  | 
Cc1nc(Cl)n2ncn(Cc3nc([C@@H]4CO[C@@H](c5ccc(Cl)cc5)C4)no3)c(=O)c12 (racemic) [Example 93, 7-chloro-5-methyl-3-[[3-[rac-(3R,5R)-5-(4-chlorophenyl)tetrahydro-furan-3-yl]-1,2,4-oxadiazol-5-yl]methyl] imidazo[5,1-f][1,2,4] triazin-4-one] |  |  | 13 | 
Cn1cnc2ncn(Cc3nc([C@@H]4CO[C@@H](c5ccc(F)cc5)C4)no3)c2c1=O [Example 69, 7-((3-((3R,5R)-5-(4-fluorophenyl)tetrahydro-furan-3-yl)-1,2,4-oxadiazol-5-yl)methyl)-1-methyl-1,7-dihydro-6H-purin-6-one] | 59.5 | 34 |  | 
Nc1nc2ncn(Cc3nc([C@@H]4CO[C@@H](c5ccc(F)cc5)C4)no3)c(=O)c2s1 [Example 126, 2-amino-6-((3-((3R,5R)-5-(4-fluorophenyl)tetrahydrofuran-3-yl)-1,2,4-oxadiazol-5-yl)methyl) thiazolo[4,5-d]pyrimidin-7(6H)-one] | 89.9 | 36 |  | 
Cn1cnc2nc(N)n(Cc3nc([C@@H]4CO[C@@H](c5ccc(S(F)(F)(F)(F)F)cc5)C4)no3)c(=O)c21 [Example 74, 2-amino-7-methyl-1-((3-((3R,5R)-5-(4-(pentafluoro-16-sulfanyl)phenyl)tetrahydrofuran-3-yl)-1,2,4-oxadiazol-5-yl)methyl)-1,7-dihydro-6H-purin-6-one] | 170 | 120 |  | 
Cc1nc2nc(N)n(C)c2c(=O)n1Cc1nc([C@@H]2CO[C@@H](c3ccc(Cl)cc3)C2)no1 (racemic) [Example 113, 8-amino-2,7-dimethyl-1-[[3-[rac-(3R,5R)-5-(4-chlorophenyl)tetrahydro-furan-3-yl]-1,2,4-oxadiazol-5-yl]methyl] purin-6-one] |  |  | 14 | 123
Cn1cnc2nc(N)n(Cc3nc([C@@H]4CO[C@@H](c5ccc(C(F)(F)F)cc5)C4)no3)c(=O)c21 [Example 136, 2-amino-7-methyl-1-((3-((3R,5R)-5-(4-(trifluoromethyl)phenyl)tetrahydrofuran-3-yl)-1,2,4-oxadiazol-5-yl)methyl)-1,7-dihydro-6H-purin-6-one] | 97.3 | 11 |  | 
Cc1nc(N(C)C)n2ncn(Cc3nc([C@@H]4CO[C@@H](c5ccc(Cl)cc5)C4)no3)c(=O)c12 (racemic) [Example 105, 7-(dimethylamino)-5-methyl-3-[[3-[rac-(3R,5R)-5-(4-chlorophenyl)tetrahydro-furan-3-yl]-1,2,4-oxadiazol-5-yl]methyl]imidazo[5,1-f][1,2,4]triazin-4-one] |  |  | 59 | 42
Cc1ccnc2ncn(Cc3nc([C@@H]4CO[C@@H](c5ccc(Cl)cc5)C4)no3)c(=O)c12 [Example 58, 3-((3-((3R,5R)-5-(4-chlorophenyl)tetrahydro-furan-3-yl)-1,2,4-oxadiazol-5-yl)methyl)-5-methylpyrido[2,3-d] pyrimidin-4(3H)-one] | 69 | 52 |  | 
Cn1cnc2ncn(Cc3nc([C@@H]4CO[C@@H](c5ccccc5Cl)C4)no3)c(=O)c21 [Example 14, 1-((3-((3R,5R)-5-(2-chlorophenyl)tetra-hydrofuran-3-yl)-1,2,4-oxadiazol-5-yl)methyl)-7-methyl-1,7-dihydro-6H-purin-6-one] | 335 | 160 |  | 
O=c1ccn2c(=O)n(Cc3nc([C@@H]4CO[C@@H](c5ccc(Cl)cc5)C4)no3)ccc2n1 (racemic) [Example 99, 7-[[3-[rac-(3R,5R)-5-(4-chlorophenyl)tetrahydro-furan-3-yl]-1,2,4-oxadiazol-5-yl]methyl]pyrimido[1,6-a]pyrimidine-2,6-dione] |  |  | 7.2 | 15.4
CN1CCc2c(ncn(Cc3nc([C@@H]4CO[C@@H](c5ccc(Cl)cc5)C4)no3)c2=O)C1 [Example 88, 3-((3-((3R,5R)-5-(4-chlorophenyl)tetrahydro-furan-3-yl)-1,2,4-oxadiazol-5-yl)methyl)-7-methyl-5,6,7,8-tetrahydropyrido [3,4-d]pyrimidin-4(3H)-one] | 2720 | 450 |  | 
Cn1cnc2ncn(Cc3nc([C@@H]4CO[C@@H](c5ccc(-c6ccccc6)cc5)C4)no3)c(=O)c21 [Example 30, 1-((3-((3R,5R)-5-[(1,1′-biphenyl]-4-yl)tetrahydrofuran-3-yl)-1,2,4-oxadiazol-5-yl)methyl)-7-methyl-1,7-dihydro-6H-purin-6-one] | 623 | 370 |  | 
Cn1cncc1C(=O)NCc1nc([C@H]2CO[C@H](c3ccc(Cl)cc3)C2)no1 (racemic) [Example 102, 3-methyl-N-[[3-[rac-(3S,5S)-5-(4-chlorophenyl)tetrahydro-furan-3-yl]-1,2,4-oxadiazol-5-yl]methyl]imidazole-4-carboxamide] |  |  | 23 | 38.9
Cc1nc2nc(N)n(Cc3nc([C@@H]4CO[C@@H](c5ccc(Cl)cc5)C4)no3)c(=O)c2n1C (racemic) [Example 152, 2-amino-7,8-dimethyl-1-[[3-[rac-(3R,5R)-5-(4-chlorophenyl)tetrahydro-furan-3-yl]-1,2,4-oxadiazol-5-yl]methyl]purin-6-one] |  |  | 6.2 | 43.1

The next lines start with the values.

IC50 [1] [nM] | IC50 [2] [nM] | IC50 [3] [nM] | IC50 [4] [nM] | SMILES
1.2 | 0.8 |  |  | Cc1cnn2ncn(Cc3nc([C@@H]4CO[C@@H](c5ccc(Cl)cc5)C4)no3)c(=O)c12 [Example 48, 3-((3-((3R,5R)-5-(4-chlorophenyl)tetra-hydrofuran-3-yl)-1,2,4-oxadiazol-5-yl)methyl)-5-methylpyrazolo[5,1-f][1,2,4]triazin-4(3H)-one]
45.7 | 24 |  |  | Cn1cnc2c(C#N)nn(Cc3nc([C@@H]4CO[C@@H](c5ccc(Cl)cc5)C4)no3)c2c1=O [Example 23, 1-((3-((3R,5R)-5-(4-chlorophenyl)tetrahydro-furan-3-yl)-1,2,4-oxadiazol-5-yl)methyl)-6-methyl-7-oxo-6,7-dihydro-1H-pyrazolo[4,3-d]pyrimidine-3-carbonitrile]
10.8 | 3.8 |  |  | Nc1nc2nccnc2n1Cc1nc([C@@H]2CO[C@@H](c3ccc(Cl)cc3)C2)no1 [Example 112, 1-((3-((3R,5R)-5-(4-chlorophenyl)tetrahydro-furan-3-yl)-1,2,4-oxadiazol-5-yl)methyl)-1H-imidazo[4,5-b] pyrazin-2-amine]
12.7 | 16 |  |  | O=c1ccc2c(=O)n(Cc3nc([C@@H]4CO[C@@H](c5ccc(Cl)cc5)C4)no3)cnc2[nH]1 [Example 124, 3-((3-((3R,5R)-5-(4-chlorophenyl)tetrahydro-furan-3-yl)-1,2,4-oxadiazol-5-yl)methyl) pyrido[2,3-d]pyrimidine-4,7(3H,8H)-dione]
37.8 | 22 |  |  | Cc1nc2nc(Cl)n(C)c2c(=O)n1Cc1nc([C@@H]2CO[C@@H](c3ccc(Cl)cc3)C2)no1 [Example 114, 8-chloro-1-((3-((3R,5R)-5-(4-chlorophenyl)tetrahydrofuran-3-yl)-1,2,4-oxadiazol-5-yl)methyl)-2,7-dimethyl-1,7-dihydro-6H-purin-6-one]
20 | 6 |  |  | Cc1ccnc2c1c(=O)nc(N)n2Cc1nc([C@@H]2CO[C@@H](c3ccc(Cl)cc3)C2)no1 [Example 134, 2-amino-1-((3-((3R,5R)-5-(4-chlorophenyl)tetrahydro-furan-3-yl)-1,2,4-oxadiazol-5-yl)methyl)-5-methylpyrido[2,3-d] pyrimidin-4(1H)-one]
9.26 | 2.8 |  |  | Cc1cc(=O)nc2ccn(Cc3nc([C@@H]4CO[C@@H](c5ccc(Cl)cc5)C4)no3)c(=O)n12 [Example 63]
19 | 12 |  |  | Cn1cnc2ncn(Cc3nc([C@@H]4CO[C@@H](c5ccc(Cl)cc5)C4)no3)c2c1=O [Example 55, 7-((3-((3R,5R)-5-(4-chlorophenyl)tetrahydro-furan-3-yl)-1,2,4-oxadiazol-5-yl)methyl)-1-methyl-1,7-dihydro-6H-purin-6-one]
8.47 | 1.6 |  |  | Cc1cnn2ncn(Cc3nc([C@@H]4CO[C@@H](c5ccc(F)cc5)C4)no3)c(=O)c12 [Example 66, 3-((3-((3R,5R)-5-(4-fluorophenyl)tetrahydro-furan-3-yl)-1,2,4-oxadiazol-5-yl)methyl)-5-methylpyrazolo[5,1-f] [1,2,4]triazin-4(3H)-one]
17.9 | 2.9 |  |  | Cc1cnn2nc(N)n(Cc3nc([C@@H]4CO[C@@H](c5cccc(F)c5)C4)no3)c(=O)c12 [Example 127, 2-amino-3-((3-((3R,5R)-5-(3-fluorophenyl)tetrahydro-3-yl)-1,2,4-oxadiazol-5-yl)methyl)-5-methylpyrazolo[5,1-f] [1,2,4]triazin-4(3H)-one]
